From paper PMC12249957, “Molecular Hybrids of Thiazolidinone: Bridging Redox Modulation and Cancer Therapy” (International Journal of Molecular Sciences, 2025)

Columns and labels:
[1] = MTS cell viability assay, HFF-1; assay type: cell-based, human; details: human, HFF-1 cells (foreskin fibroblasts)
Description: (§1) The MTS assay was employed in the current study to evaluate the in vitro effects of thiazolidinone derivatives (TZDs-1, 5, 6, and 7) on the cellular viability of the HFF-1, HepG2, and A549 cell lines following incubation for 24 and 48 h. Using the MTS assay allows for the quantitative measurement of how TZDs affect cell viability after a certain period of treatment. The 24- and 48-hour incubation periods are useful for observing either immediate and delayed cytotoxicity or effects on cell growth, providing more comprehensive data on the potential therapeutic or toxic properties of thiazolidinone derivatives.
(§2) All solvents used in the preparation of thiazolidinone derivatives were obtained in pure form from Sigma-Aldrich (St. Louis, MO, USA) and Thermo Fisher Scientific (Waltham, MA, USA). All other chemicals used herein were of analytical grade and were used without further purification. To separate and confirm the purity of thiazolidinone derivatives, column chromatography on silica gel (0.063–0.2 mm) and thin layer chromatography (TLC) with aluminum silica gel F254 were used. Human foreskin fibroblasts (HFF-1) (ATCC: SCRC-1041), hepatoblastoma cell line (HepG2) (ATCC: HB-8065), and human lung cancer cell line (A549) (ATCC: CCL-185) were used in this study to evaluate the cytotoxicity of the tested compounds. Distilled water for experiment preparation was generated using a Milli-Q® IQ 7005 Purification System (Millipore SAS, Molsheim, France).
(§3) HFF-1, HepG2, and A549 were cultured in DMEM (Sigma-Aldrich, St. Louis, MO, USA) medium complemented with 10% fetal bovine serum (FBS) (Sigma, Suffolk, UK), streptomycin ([…]), and penicillin (100 units/mL) (Sigma, Suffolk, UK) in a cell culture incubator (5% CO2 at 37 °C).
(§4) Thiazolidinone derivatives (TZDs-1, 5, 6, and 7) were prepared via dissolution in 10% DMSO and 8 serial dilutions and assessed starting from 5000 to 39 µg/mL. A CellTiter 96® AQueous One Solution Cell Proliferation Assay (MTS kit, Promega, Madison, WI, USA) was used to evaluate the cell viability of TZDs on the cells. Briefly, all cells were seeded into 96-well plates with a seeding density of 1.5 × 10^4 cells per well. After 24 h, cells adhered, and then, TZD derivatives were added, and plates were incubated in a cell culture incubator with 5% CO2 at 37 °C for 24 and 48 h. Completed DMEM was used as the positive control, and 0.1% Triton X-100 was used as the negative control. After incubation time, cells were washed with sterile phosphate-buffered saline, pH 7.4 (PBS), and then, a mixture of complete DMEM medium and MTS reagent was added to each well (100 µL of DMEM medium + 20 µL of MTS reagent). Finally, the plates were incubated for 3 h in a cell culture incubator. The absorbance at 492 nm was recorded using a Cytation ™ 3 Cell Imaging Multi-Mode Reader (BIOTEK Instruments Inc., Winooski, VT, USA). The percentage of cellular viability was calculated using the following equation:Cell Viability (%) = (S − T)/(H − T) × 100 where S is the absorbance of the cells treated with the applied compounds, T is the absorbance of the positive control, and H is the absorbance of the negative control. The results are presented as the mean ± SD of at least three independent measurements.

[2] = MTS cell viability assay, HepG2; assay type: cell-based; details: human, HepG2 cells; for viability: concentrations of ≥1250 µg/mL, time not stated
Description: as §1, §2, §3, §4

[3] = MTS cell viability assay, A549; assay type: cell-based; details: human, A549 cells
Description: as §1, §2, §3, §4

[4] = test system: normal (HFF-1) and cancerous cells (HepG2 and A549); assay: Summary of selectivity toward cancer cells (MTS viability, normal vs cancerous cells); assay type: cell-based, human
Description: as §1, §3, §4

[5] = design: method as in doi:10.1016/j.molstruc.2024.139348; details: DPPH; unit inferred; cited from earlier work
[6] = DPPH radical-scavenging assay (antioxidant activity); assay type: biochemical
Description: In this study, the antioxidant activity of the newly synthesized thiazolidinone derivative 5 was evaluated, and its IC50 value was compared with those of the parent compound, thiazolidinone 1; previously reported derivatives 6 and 7; and the reference antioxidant, ascorbic acid. To ensure a valid comparison, all compounds were assessed under identical conditions using the DPPH (2,2-diphenyl-1-picrylhydrazyl) radical-scavenging assay.
The antioxidant activity of thiazolidinone derivative 5 was evaluated under conditions similar to those reported in our previous work for thiazolidinone derivatives (1, 6, and 7) using the DPPH assay (2,2-diphenyl-1-picrylhydrazyl). The concentration needed to get rid of 50% of free radicals is called IC50 (half-maximal inhibitory concentration) (μg/mL). The value of the IC50 is determined by plotting antioxidant activity against the concentration employing the equation below:%Antioxidant activity = (Acontrol − Asample/Acontrol) × 100 where Acontrol is the absorbance of the DPPH solution without the sample, and Asample is the absorbance with the tested compound. These percentage inhibition values are then plotted against the logarithm of the compound concentrations to generate a dose–response curve. […]

HFF-1 cells = assay: MTS cell viability assay, HFF-1; assay type: cell-based, human; details: 48 h, 1250 µg/mL
Description: as §1, §2, §3, §4

[7] = molecular target: insulin-like growth factor-1 receptor (IGF-1R); design: method as in PMID 20178321; details: read-out: IC50, IGF-1R inhibition; cited from earlier work

Row | SMILES | viability at 24 h, 1250 µg/mL ([1]; 24 h) [%] | viability at 48 h, 1250 µg/mL [1] [%] | viability at 24 h, 1250 µg/mL ([2]; 24 h) [%] | viability at 48 h, 1250 µg/mL [2] [%] | viability at 24 h, 1250 µg/mL ([3]; 24 h) [%] | viability at 48 h, 1250 µg/mL [3] [%] | Selectivity Toward Cancer Cells ([4]; 24 h, 1250 µg/mL) | Selectivity Toward Cancer Cells ([4]; 48 h, 1250 µg/mL) | IC50 of antioxidant activity (Figure 3) [5] [µg/mL] | also measured
1 | COc1cc(C=NNC2=NC(=O)CS2)cc(OC)c1OC [TZD-1, 2-(2-(3,4,5-trimethoxybenzylidene) hydrazineyl)thiazol-4(5H)-one] | 6.45 | 15.3 | 53.2 | 21.9 | 75.6 | 70.6 | Low (high toxicity to normal cells) | Low | 263 | viability [2]: < 25%
2 | COc1ccc(CN2C(=O)CSC2=NN=Cc2cc(OC)c(OC)c(OC)c2)cc1 [TZD-5, 3-(4-methoxybenzyl)-2-((3,4,5-trimethoxybenzylidene)hydrazineylidene) thiazolidin-4-one] |  |  |  |  |  |  |  |  |  | IC50 of antioxidant activity (DPPH) [6]: 24.4 µg/mL; viability at 24 h, 2500 µg/mL ([1]; 24 h, 2500 µg/mL): 97%; viability at 48 h, 2500 µg/mL ([1]; 2500 µg/mL): 48%; viability at 24 h, 2500 µg/mL ([2]; 24 h, 2500 µg/mL): 63%; viability at 48 h, 2500 µg/mL ([2]; 2500 µg/mL): 57%; viability at 24 h, 2500 µg/mL ([3]; 24 h, 2500 µg/mL): 95.8%; viability at 48 h, 2500 µg/mL ([3]; 2500 µg/mL): 55%; Selectivity Toward Cancer Cells ([4]; 24 h, 2500 µg/mL): Moderate (better selectivity); Selectivity Toward Cancer Cells ([4]; 48 h, 2500 µg/mL): Moderate
3 | COc1cc(/C=N/N=C2\SCC(=O)N2Cc2ccccc2)cc(OC)c1OC [TZD-6] | 2 | 1 to 2 | 25 | 12 | 13 | 9 | Low (high toxicity to normal cells) | Low | 111 | viability at 24 h, 312 µg/mL ([1]; 24 h, 312 µg/mL): 70%; viability at 48 h, 2500 µg/mL ([1]; 2500 µg/mL): 1 to 2%; HFF-1 Viability (%) (HFF-1 cells): 1–2%; viability at 24 h, 156 µg/mL ([2]; 24 h, 156 µg/mL): 76%; viability at 24 h, 5000 µg/mL ([2]; 24 h, 5000 µg/mL): 35%; viability at 48 h, 2500 µg/mL ([2]; 2500 µg/mL): 7%; viability [2]: < 25%; viability at 24 h, 156 µg/mL ([3]; 24 h, 156 µg/mL): 78%; viability at 24 h, 5000 µg/mL ([3]; 24 h, 5000 µg/mL): 10%; viability at 48 h, 2500 µg/mL ([3]; 2500 µg/mL): 13%; viability ([3]; concentrations of ≥1250 µg/mL, time not stated): < 25%
4 | COc1cc(/C=N/N=C2\SCC(=O)N2Cc2ccc([N+](=O)[O-])cc2)cc(OC)c1OC [TZD-7] | 110 | > 94 | 96.4 | ~23 | 70 | 82.3 | Moderate (better selectivity) | High | 200 | viability at 24 h, 39 µg/mL ([1]; 24 h, 39 µg/mL): 135%
5 | O=C1NC(=O)C(=Cc2ccccc2)S1 [5-benzylidenethiazolidine-2,4-dione] |  |  |  |  |  |  |  |  |  | IC50 [7]: 57 nM
6 | O=C1O[C@H]([C@@H](O)CO)C(O)=C1O [ascorbic acid, reference compound] |  |  |  |  |  |  |  |  |  | IC50 of antioxidant activity (DPPH) [6]: 11.76 µg/mL
7 | O=C1NC(=O)C(=Cc2ccco2)S1 [5-(furan-2-ylmethylene)thiazolidine-2,4-dione] |  |  |  |  |  |  |  |  |  | IC50 [7]: 61 nM
